Results published in patent US20240408068A1, “Helicase Primase Inhibitors For Treating Cancer In A Combination Therapy With Oncolytic Viruses” (priority 2018, published 2024).

Legend:
HSV-1 [1] = test: Second oHSV experiment (repeated virus injection): number of dead animals by day; assay type: in vivo, mice; conditions: for Number of dead animals by day: n=10; for rescue of mice from virus-induced death: second experiment, multiple intratumoral HSV injections, 10 mg/kg po
Protocol: The methods of the first experiment were used and the experimental design was modified in the second experiment as follows: • 1. The oncolytic herpesvirus was, in contrast to the first experiment, injected multiple times at a constant dose at distinct intervals. • 2. In addition to Example 7(-) used in the first experiment, the efficacy of a series of helicase primase inhibitors was tested in the second experiment to enable the class of helicase primase inhibitors in general.
Pharmacological animal groups (10 animals per group, 80 animals in total and 5 animals per group in the satellite group; 50 animals in total used for analysis of plasma and tumor samples) were organized as such: • 1. Control virus-untreated group: test compound vehicle, oral gavage, once a day, for 2 days and starting 48 h after each virus injection time-point. • 2. Control virus vehicle-treated group: 100 μL of virus vehicle by intratumoral injection when tumors reached an average volume of ˜50 mm^3 (i.e. on day 11) then 2 injections spaced 5 days apart from each other; with test compound vehicle, oral gavage, once a day, for 2 days and starting 48 h after each virus injection time-point. • 3. HSV-1 (5×10^7 pfu)-treated group: 100 μL of HSV-1 (5×10^7) by intratumoral injection when tumors reached an average volume of ˜50 mm^3 (i.e. on day 11) then 2 injections spaced 5 days apart from each other; with test compound vehicle, oral gavage, once a day, for 2 days and starting 48 h after each virus injection time-point and with anti-PD-1 vehicle, intraperitoneal injection (100 μL PBS) on the same day as the virus injection, and then 3 administrations spaced 3 days apart from each other (days 11, 14, 17 and 20). • 4. HSV-1 (5×10^7 pfu)+anti-PD1-treated group: 100 μL of HSV-1 (5×10^7 pfu) intratumoral injection when tumors reached an average volume of ˜50 mm^3 (i.e. on day 11) then 2 injections spaced 5 days apart from each other; with test compound vehicle, oral gavage, once a day, for 2 days and starting 48 h after each virus injection time-point and with anti-PD-1 (5 mg/kg), intraperitoneal injection on the same day as the virus injection, and then 3 administrations spaced 3 days apart from each other (days 11, 14, 17 and 20). • 5. HSV-1 (5×10^7 pfu)-Example 10—treated group: 100 μL of HSV-1 (5×10^7 pfu) intratumoral injection when tumors reached an average volume of ˜50 mm^3 (i.e. on day 11) then 2 injections spaced 5 days apart from each other; with Example 10 (10 mg/kg), oral gavage, once a day, for 2 days and starting 48 h after each virus injection time-point (days 13, 14, 18, 19, 23 and 24). • 6. HSV-1 (5×10^7 pfu)-pritelivir-treated group: 100 μL of HSV-1 (5×10^7 pfu) intratumoral injection when tumors reached an average volume of ˜50 mm^3 (i.e. on day 11) then 2 injections spaced 5 days apart from each other; with pritelivir (10 mg/kg), oral gavage, once a day, for 2 days and starting 48 h after each virus injection time-point (days 13, 14, 18, 19, 23 and 24). • 7. HSV-1 (5×10^7 pfu)-amenamevir-treated group: 100 μL of HSV-1 (5×10^7 pfu) intratumoral injection when tumors reached an average volume of ˜5 0mm^3 (i.e. on day 11) then 2 injections spaced 5 days apart from each other; with amenamevir (10 mg/kg), oral gavage, once a day, for 2 days and starting 48 h after each virus injection time-point (days 13, 14, 18, 19, 23 and 24). • 8. HSV-1 (5×10^7 pfu)-Example 10+anti-PD1-treated group: 100 μL of HSV-1 (5×10^7 pfu) intratumoral injection when tumors reached an average volume of ˜50 mm^3 (i.e. on day 11) then 2 injections spaced 5 days apart from each other; with Example 10 (10 mg/kg), oral gavage, once a day, for 2 days and starting 48 h after each virus injection time-point (days 13, 14, 18, 19, 23 and 24) and with anti-PD-1 (5 mg/kg), intraperitoneal injection on the same day as the virus injection and then 3 administrations spaced 3 days apart each other (days 11, 14, 17 and 20). Results of the Second oHSV Experiment […]

HSV-1 [2] = test: In vitro activity, HSV-1 infected Vero cells; assay type: cell-based
Protocol: (§1) The in vitro activity of the new compounds was measured as described in WO2017/174640 and in WO2019/068817.

HSV-2 = test: In vitro activity, HSV-2 infected Vero cells; assay type: cell-based
Protocol: as §1

## Cc1nc(N(C)C(=O)Cc2ccc(-c3cc(F)ccc3F)cc2)sc1S(N)(=O)=O [Example 10, 2-(2′,5′-Difluoro-[1,1′-biphenyl]-4-yl)-N-methyl-N-(4-methyl-5-sulfamoylthiazol-2-yl)acetamide]
HSV-1 [1]; day 7, HSV-1 5×10^7 pfu + Example 10 10 mg/kg po
  Number of dead animals by day: 0
HSV-1 [1]; day 7, HSV-1 5×10^7 pfu + anti-PD-1 5 mg/kg ip + Example 10 10 mg/kg po
  Number of dead animals by day: 0
HSV-1 [1]; day 9, HSV-1 5×10^7 pfu + Example 10 10 mg/kg po
  Number of dead animals by day: 0
HSV-1 [1]; day 9, HSV-1 5×10^7 pfu + anti-PD-1 5 mg/kg ip + Example 10 10 mg/kg po
  Number of dead animals by day: 0
HSV-1 [1]; day 11, HSV-1 5×10^7 pfu + Example 10 10 mg/kg po
  Number of dead animals by day: 0
HSV-1 [1]; day 11, HSV-1 5×10^7 pfu + anti-PD-1 5 mg/kg ip + Example 10 10 mg/kg po
  Number of dead animals by day: 0
HSV-1 [1]; day 14, HSV-1 5×10^7 pfu + Example 10 10 mg/kg po
  Number of dead animals by day: 0
HSV-1 [1]; day 14, HSV-1 5×10^7 pfu + anti-PD-1 5 mg/kg ip + Example 10 10 mg/kg po
  Number of dead animals by day: 0
HSV-1 [1]; day 16, HSV-1 5×10^7 pfu + Example 10 10 mg/kg po
  Number of dead animals by day: 0
HSV-1 [1]; day 16, HSV-1 5×10^7 pfu + anti-PD-1 5 mg/kg ip + Example 10 10 mg/kg po
  Number of dead animals by day: 0
HSV-1 [1]; day 18, HSV-1 5×10^7 pfu + Example 10 10 mg/kg po
  Number of dead animals by day: 1
HSV-1 [1]; day 18, HSV-1 5×10^7 pfu + anti-PD-1 5 mg/kg ip + Example 10 10 mg/kg po
  Number of dead animals by day: 1
HSV-1 [1]; day 21, HSV-1 5×10^7 pfu + Example 10 10 mg/kg po
  Number of dead animals by day: 1
HSV-1 [1]; day 21, HSV-1 5×10^7 pfu + anti-PD-1 5 mg/kg ip + Example 10 10 mg/kg po
  Number of dead animals by day: 1
HSV-1 [1]
  rescue of mice from virus-induced death: the mice can be rescued

## Cc1nc(N(C)C(=O)C2Cc3ccc(-c4cc(F)ccc4F)cc3C2)sc1S(C)(=N)=O (single isomer, unassigned) [Example 6, 5-(2,5-Difluorophenyl)-N-methyl-N-(4-methyl-5-(S-methylsulfonimidoyl)thiazol-2-yl)-2,3-dihydro-1H-indene-2-carboxamide]
HSV-1 [2]
  IC50: 75 nM
HSV-2
  IC50: 750 nM

## Cc1nc(N(C)C(=O)Cc2ccc(-c3ccccn3)cc2)sc1S(N)(=O)=O [pritelivir, Pritelivir]
HSV-1 [1]; day 7, HSV-1 5×10^7 pfu + pritelivir 10 mg/kg po
  Number of dead animals by day: 0
HSV-1 [1]; day 9, HSV-1 5×10^7 pfu + pritelivir 10 mg/kg po
  Number of dead animals by day: 0
HSV-1 [1]; day 11, HSV-1 5×10^7 pfu + pritelivir 10 mg/kg po
  Number of dead animals by day: 0
HSV-1 [1]; day 14, HSV-1 5×10^7 pfu + pritelivir 10 mg/kg po
  Number of dead animals by day: 0
HSV-1 [1]; day 16, HSV-1 5×10^7 pfu + pritelivir 10 mg/kg po
  Number of dead animals by day: 0
HSV-1 [1]; day 18, HSV-1 5×10^7 pfu + pritelivir 10 mg/kg po
  Number of dead animals by day: 0
HSV-1 [1]; day 21, HSV-1 5×10^7 pfu + pritelivir 10 mg/kg po
  Number of dead animals by day: 0
HSV-1 [1]
  rescue of mice from virus-induced death: the mice can be rescued

## Cc1nc(N(C)C(=O)C2Cc3ccc(-c4cc(F)ccc4F)cc3C2)sc1S(C)(=N)=O (single isomer, unassigned) [Example 8, 5-(2,5-Difluorophenyl)-N-methyl-N-(4-methyl-5-(S-methylsulfonimidoyl)thiazol-2-yl)-2,3-dihydro-1H-indene-2-carboxamide]
HSV-1 [2]
  IC50: 175 nM
HSV-2
  IC50: 1500 nM

## Cc1nc(N(C)C(=O)C2Cc3ccc(-c4cc(F)ccc4F)cc3C2)sc1S(C)(=N)=O (single isomer, unassigned) [Example 5, 5-(2,5-Difluorophenyl)-N-methyl-N-(4-methyl-5-(S-methylsulfonimidoyl)thiazol-2-yl)-2,3-dihydro-1H-indene-2-carboxamide]
HSV-1 [2]
  IC50: 20000 nM
HSV-2
  IC50: 20000 nM

## Cc1cccc(C)c1N(CC(=O)Nc1ccc(-c2ncon2)cc1)C(=O)C1CCS(=O)(=O)CC1 [amenamevir, Amenamevir]
HSV-1 [1]; day 7, HSV-1 5×10^7 pfu + amenamevir 10 mg/kg po
  Number of dead animals by day: 0
HSV-1 [1]; day 9, HSV-1 5×10^7 pfu + amenamevir 10 mg/kg po
  Number of dead animals by day: 0
HSV-1 [1]; day 11, HSV-1 5×10^7 pfu + amenamevir 10 mg/kg po
  Number of dead animals by day: 0
HSV-1 [1]; day 14, HSV-1 5×10^7 pfu + amenamevir 10 mg/kg po
  Number of dead animals by day: 0
HSV-1 [1]; day 16, HSV-1 5×10^7 pfu + amenamevir 10 mg/kg po
  Number of dead animals by day: 0
HSV-1 [1]; day 18, HSV-1 5×10^7 pfu + amenamevir 10 mg/kg po
  Number of dead animals by day: 2
HSV-1 [1]; day 21, HSV-1 5×10^7 pfu + amenamevir 10 mg/kg po
  Number of dead animals by day: 2
HSV-1 [1]
  rescue of mice from virus-induced death: the mice can be rescued

## Cc1nc(N(C)C(=O)C2Cc3ccc(-c4cc(F)ccc4F)cc3C2)sc1S(N)(=O)=O (single isomer, unassigned; (-)) [Example 2, (−)-5-(2,5-Difluorophenyl)-N-methyl-N-(4-methyl-5-sulfamoylthiazol-2-yl)-2,3-dihydro-1H-indene-2-carboxamide]
HSV-1 [2]
  IC50: 2000 nM
HSV-2
  IC50: 16000 nM

## Cc1nc(N(C)C(=O)C2Cc3ccc(-c4cc(F)ccc4F)cc3C2)sc1S(N)(=O)=O (single isomer, unassigned; (+)) [Example 3, (+)-5-(2,5-difluorophenyl)-N-methyl-N-(4-methyl-5-sulfamoylthiazol-2-yl)-2,3-dihydro-1H-indene-2-carboxamide]
HSV-1 [2]
  IC50: 0.5 nM
HSV-2
  IC50: 16 nM
